Laboratory results published in PubChem BioAssay (NCI).
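48-hour exposure; five concentrations; linearly interpolated endpoints. TGI is the concentration that stops growth completely.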

What was measured:
Test in all cases: NCI anticancer screen, dose series, 48 h
MDA-MB-435 = system: MDA-MB-435
EKVX NSCLC = system: EKVX NSCLC
SF-295 CNS = system: SF-295 CNS
SW-620 colon = system: SW-620 colon
HCT-15 colon = system: HCT-15 colon
HCT-116 colon = system: HCT-116 colon
HT29 colon = system: HT29 colon
A549 NSCLC = system: A549 NSCLC
CAKI-1 renal = system: CAKI-1 renal
HCC-2998 colon = system: HCC-2998 colon
RXF 393 renal = system: RXF 393 renal
HS 578T breast = system: HS 578T breast
ACHN renal = system: ACHN renal
SK-MEL-2 melanoma = system: SK-MEL-2 melanoma
M14 melanoma = system: M14 melanoma
A498 renal = system: A498 renal
NCI-H23 lung = system: NCI-H23 lung
SK-MEL-28 melanoma = system: SK-MEL-28 melanoma

Row | Structure (SMILES) | TGI (MDA-MB-435) | TGI (EKVX NSCLC) | TGI (SF-295 CNS) | TGI (SW-620 colon) | TGI (HCT-15 colon) | TGI (HCT-116 colon) | TGI (HT29 colon) | TGI (A549 NSCLC) | TGI (CAKI-1 renal) | TGI (HCC-2998 colon) | TGI (RXF 393 renal) | TGI (HS 578T breast) | TGI (ACHN renal) | TGI (SK-MEL-2 melanoma) | TGI (M14 melanoma) | TGI (A498 renal) | TGI (NCI-H23 lung) | TGI (SK-MEL-28 melanoma)
1 | CCOC(=O)c1ccc(NC(=O)O/N=C(/Cl)C(C)C)cc1 | 32.5 µM | 31.3 µM | 34.8 µM | 4.32 µM | 24.9 µM | 22.4 µM | 48 µM | 47.7 µM | 8.87 µM | 33.2 µM | 30.6 µM | 94.8 µM | 27 µM | 29.3 µM | 14.6 µM | 28.4 µM | 47.7 µM | 31 µM
2 | C=C1C(=O)OC2/C=C(\C)C(=O)CC3OC(C)(C)OC3(C)CC(OC(=O)/C(C)=C/C)C12 (stereo unspecified) | > 68.2 µM | 34.2 µM | 98.2 µM | 98.7 µM | 19.8 µM | > 44.1 µM | 37.2 µM | > 100 µM | 10.3 µM | 34.9 µM | 36.7 µM | > 100 µM | 16.6 µM | 82.8 µM | > 70.3 µM | 54.4 µM | 57.8 µM | 86.5 µM
3 | CC(=O)Nc1ccc(-c2nc3ccccc3s2)cc1Cl | > 100 µM | > 100 µM | > 100 µM | > 100 µM | > 100 µM | > 100 µM | > 100 µM | > 100 µM | > 100 µM | > 100 µM | 90.3 µM | 93.3 µM | > 100 µM | > 100 µM | > 100 µM | > 100 µM | > 100 µM | > 100 µM
4 | CCOC(=O)/C(=C\c1ccnc2ccccc12)P(=O)(OCC)OCC | 9.95 µM | 15.1 µM | 10.5 µM | 5.27 µM | 3.3 µM | 3.61 µM | 4.62 µM | 14.7 µM | 7.66 µM | 26.7 µM | 4.41 µM | 8.63 µM | 4.82 µM | 4.49 µM | 5.02 µM | 5.98 µM | 4.22 µM | 3.35 µM
5 | O=C1N(CN2CCOCC2)CN(CN2CCOCC2)C(=O)N1Cc1ccc(-c2ccc(CN3C(=O)N(CN4CCOCC4)CN(CN4CCOCC4)C3=O)cc2)cc1 | 13.6 µM | 61.5 µM | 65.6 µM | 30.7 µM | > 91.2 µM | 29.7 µM | > 100 µM | 57.6 µM | 29.2 µM | 28.3 µM | 27.3 µM | > 100 µM | 99.3 µM | > 51.8 µM | 21.3 µM | 44.1 µM | 47.5 µM | 36.2 µM
6 | CCOC(=O)NC(Nc1ccc(F)c(F)c1)(C(=O)OCC)C(F)(F)F (stereo unspecified) | > 100 µM | > 100 µM | > 100 µM | > 100 µM | > 100 µM | > 100 µM | > 100 µM | > 100 µM | > 100 µM | > 100 µM | > 100 µM | > 100 µM | > 100 µM | > 86.5 µM | > 100 µM | > 100 µM | > 100 µM | > 100 µM
7 | CCCCC1C(=O)N(c2ccc(S(=O)(=O)Nc3ccccn3)cc2)N(c2ccc(O)c(C(=O)O)c2)C1=O (stereo unspecified) | > 100 µM | > 100 µM | > 100 µM | > 100 µM | > 100 µM | > 100 µM | > 100 µM | > 100 µM | > 100 µM | > 100 µM | > 100 µM | > 100 µM | > 100 µM | > 100 µM | > 100 µM | > 100 µM | > 100 µM | > 100 µM
8 | CC(O)CCNC(=O)Nc1c(C(F)(F)F)cc(-c2ccccc2)[nH]c1=O (stereo unspecified) | > 100 µM | > 100 µM | > 100 µM | > 100 µM | > 100 µM | > 100 µM | > 100 µM | > 100 µM | > 100 µM | > 100 µM | > 100 µM | > 100 µM | > 100 µM | > 100 µM | > 100 µM | > 100 µM | > 100 µM | > 100 µM
9 | Cc1ccc(-c2cn3c(nc4ccccc43)c(-c3ccccc3)n2)cc1 | > 100 µM | > 100 µM | > 67.1 µM | > 100 µM | > 100 µM | > 100 µM | > 100 µM | > 100 µM | > 100 µM | > 100 µM | > 61.3 µM | > 77.2 µM | > 100 µM | 58.3 µM | > 100 µM | > 86.5 µM | 80.8 µM | > 100 µM
10 | CC1=C(C(=O)NNC(=O)C(N)=O)CC(C(=O)NNC(=O)C(N)=O)=C(C)N1 | > 100 µM | > 100 µM | > 100 µM | > 100 µM | > 100 µM | > 100 µM | > 100 µM | > 100 µM | > 100 µM | > 100 µM | > 100 µM | > 100 µM | > 100 µM | > 100 µM | > 100 µM | > 100 µM | > 100 µM | > 100 µM
11 | N#Cc1nc(Sc2cnsn2)c(Sc2cnsn2)nc1C#N | 33.8 µM | 36.7 µM | > 58.8 µM | > 22.5 µM | 13.1 µM | 17.1 µM | 47.6 µM | > 77.4 µM | 12.5 µM | 33.5 µM | 12.3 µM | 43 µM | 16 µM | 47 µM | 60.7 µM | 43.8 µM | 46.2 µM | 53.6 µM
12 | O=C1NC(=O)[C@@H](OCC2CCCCC2)[C@@H]2OCC3OC(C(O)C3O)C12 (stereo partly specified) | > 100 µM | > 100 µM | > 100 µM | > 100 µM | > 100 µM | > 100 µM | > 100 µM | > 100 µM | > 100 µM | > 100 µM | > 100 µM | > 100 µM | > 100 µM | > 100 µM | > 100 µM | > 100 µM | > 100 µM | > 100 µM
